# Reference: patent US20170057995A1, “USE OF AROMATIC-CATIONIC PEPTIDES TO TREAT CHOLESTEROL-INDUCED MITOCHONDRIAL DYSFUNCTION” (CORNELL UNIVERSITY, priority 2013, published 2017)
# Where no end group is shown, it is not given here. [ ]: non-standard residue; d: D form.
# Experiments:
# cytochrome c [1] = assay: Cytochrome c peroxidase activity (Amplex Red Peroxidase Kit); assay type: biochemical; settings: for reduction in cytochrome c peroxidase activity compared to cytochrome c exposed to chol-POPC liposomes only: 300 μM chol-POPC liposomes, cytochrome c incubated with peptide first, peptide concentration not stated (FIG. 2 range 0-300 μM); for effect on cholesterol-induced cytochrome c peroxidase activity (FIG. 2): peptide 0 μM to 300 μM, 300 μM cholesterol
# Method: Cytochrome c peroxidase activity was measured using the Amplex Red Peroxidase Kit. Amplex Red reagent reacts with H2O2 in a 1:1 ratio in the presence of a peroxidase in order to create a highly fluorescent compound called resorufin, which has an excitation at 570 nm and an emission at 585 nm. 2 μM cytochrome c was incubated in 20 mM Hepes buffer pH 7.4 with varying concentrations of free cholesterol dissolved in ethanol or cholesterol-POPC liposomes (chol-POPC). 10 μM of H2O2 and 50 μM of Amplex Red reagent were subsequently added. The fluorescence was then measured using time course data collected from a Spectra Max 190 microplate spectrofluorometer (Molecular Devices, Sunnyvale, Calif.). Liposomes were prepared as previously described in Melzak et al., Langmuir, 24: 9172-9180 (2008). Chol-POPC liposomes were prepared in a 1:1 molar ratio. Stock solutions were mixed and then dried under nitrogen from 30 minutes. After resuspension in 20 mM Hepes buffer pH 7.4, the liposomes were extruded 25 times through a 50 nm pore membrane (Avestin).
# cytochrome c [2] = assay: Cytochrome c reduction by ascorbate (absorbance at 550 nm); assay type: biochemical; settings: 100 μM chol-POPC liposomes, 20 μM cytochrome c, 50 μM vitamin C; peptide up to 300 μM
# Method: Liposomes were prepared as previously described in Melzak et al., Langmuir, 24: 9172-9180 (2008). Chol-POPC liposomes were prepared in a 1:1 molar ratio. Stock solutions were mixed and then dried under nitrogen from 30 minutes. After resuspension in 20 mM Hepes buffer pH 7.4, the liposomes were extruded 25 times through a 50 nm pore membrane (Avestin). 20 μM cytochrome c in Hepes buffer pH 7.4 was contacted with varying concentrations of chol-POPC liposomes and peptide. 50 μM ascorbate (vitamin C) was added after five minutes in order to promote the reduction the cytochrome c protein. The absorbance at 550 nm was then recorded in order to obtain the rate of the reaction after treatment with varying concentrations of peptide and cholesterol using a spectrophotometer (Spectramax Gemini XPS, Molecular Devices, Sunnyvale, Calif.). (See Basova et al., 2007).
# cytochrome c [3] = assay: Absorbance spectrum of cytochrome c (Soret band, 350-450 nm); settings: 100 μM peptide
# Method: The effects of cholesterol and aromatic-cationic peptides on the structure of cytochrome c were analyzed using absorbance spectra (Pinherio et al., 1997). Wild-type cytochrome c typically has a peak at around 410 nm (which represents the Soret region) that may be affected by protein damage. Absorbance between 350-450 nm was analyzed using a Spectramax Gemini XPS spectrophotometer (Molecular Devices, Sunnyvale, Calif.).
# Cholesterol-induced structural alterations of cytochrome c were also analyzed using absorption spectroscopy. The absorbance spectrum between 350 and 450 nm was analyzed so as to monitor changes to the Soret band. A Soret band with a maximum intensity at 410 nm is indicative of the presence of both axial ligands (His18 and Met80 ligated to heme iron). (Pinherio et al., 1997).
# cytochrome c [4] = assay: Circular dichroism spectroscopy of cytochrome c (Soret region); settings: 100 μM peptide; 40 μM chol-POPC liposomes; 10 mM cytochrome c
# Method: The circular dichroism (CD) spectra was collected using an AVIA 62 DS spectrophotometer. The CD spectra was analyzed between 375-450 nm in order to monitor the Soret region using a CD 10-mm path-length for cells containing 20 mM Hepes (pH 7.4) and […] cytochrome c in the presence or absence of 40 μM chol-POPC liposomes and/or 100 μM SS-31.
# Circular dichroism (Olis DSM20 spectropolarimeter) was carried out to analyze Soret region (375-450 nm), a probe for the attachment of the Met80 residue to the heme iron. The decreased intensity of the 416 nm Cotton effect (negative Cotton peak) is indicative of a perturbed heme pocket region, as the 416 nm dichroic band serves as a readout for the Met80-Fe(III) coordination in native cytochrome c. (Santucci et al., 1997). […] The CD spectra data comports with the findings of Examples 1 and 3 because the disruption of the Fe-Met80 coordination increases the exposure of the heme Fe to H2O2, thereby causing cytochrome c to switch from an electron carrier to a peroxidase.
"increase in cytochrome c peroxidase activity (cytochrome c [1]; 300 μM, 2 μM cytochrome c, 10 μM H2O2, 50 μM Amplex Red) [fold]",Molecule,reduction in cytochrome c peroxidase activity compared to cytochrome c exposed to chol-POPC liposomes only (cytochrome c [1]) [%],effect on cholesterol-induced cytochrome c peroxidase activity (FIG. 2) (cytochrome c [1]; 2 μM cytochrome c),effect on cholesterol-induced impairment of cytochrome c reduction (FIG. 3B) (cytochrome c [2]),intensity of the 410 nm absorbance peak of cytochrome c incubated with chol-POPC liposomes (cytochrome c [3]),negative Cotton peak of cytochrome c incubated with chol-POPC liposomes (CD spectra) (cytochrome c [4])
,F[dR]FK-NH2 [SS-20],77,inhibit cholesterol-induced cytochrome c peroxidase activity in a dose-dependent manner,reversed,,
,"D-Arg-2′,6′-Dmt-Lys-Phe-NH2 [SS-31]",75,inhibit cholesterol-induced cytochrome c peroxidase activity in a dose-dependent manner,reversed,increases the intensity of the 410 nm peak,restores the negative Cotton peak
40,CC(C)CCC[C@@H](C)[C@H]1CC[C@H]2[C@@H]3CC=C4C[C@@H](O)CC[C@]4(C)[C@H]3CC[C@]12C [cholesterol],,,,,
